Consider six molecules from publication PMC6033213, “Structurally simple synthetic 1, 4-disubstituted piperidines with high selectivity for resistant Plasmodium falciparum” (BMC Pharmacology & Toxicology, 2018).

Converted amounts (≈) assume the structure as drawn. Like-named read-outs stand apart in the source and are kept apart here. A value given as a limit tells only on which side of the number the result lay.

Data set [1] concerns P. falciparum 3D7. Nature of the data set: Secondary screen: parasite growth inhibition by parasite lactate dehydrogenase (pLDH) assay, 3D7. It is filed as cell-based, Plasmodium falciparum. More on the design: key to Antiplasmodial activity class on 3D7: active, IC50 < 5 μg/mL; moderately active: 5 μg/mL ≤ IC50 ≤ 10 μg/mL; weakly active: IC50 ≥ 10 μg/mL. The note with it: for IC50 / IC90: Plasmodium falciparum; for IC90: read-out: IC90. The text has this:
(§1) Two Plasmodium falciparum parasite strains were obtained from MR4 (Manassas, Virginia, USA) and stored in liquid nitrogen. The 3D7 (MRA-102) strain is chloroquine- sensitive while Dd2 is a multidrug resistant clone of the W2 strain with resistance to chloroquine, quinine, mefloquine, sulfadoxine and pyrimethamine. Parasite stocks were thawed, grown and maintained in continuous culture by the candle jar technique with some modifications. The culture consisted of 4% hematocrit suspension of human O+ erythrocytes in RPMI-1640 medium (10.43 g/L supplemented with 0.01 mg/mL gentamycin, 25 mM Hepes buffer, 25 mM NaHCO3) and 5 g Albumax II. All culture reagents were obtained from Sigma-Aldrich Inc. (Germany) except for Albumax II (Gibco; Invitrogen, USA). Cultures were incubated at 37 °C in 5% CO2.
(§2) After incubation the plate was frozen at − 20 °C for the parasite lactate dehydrogenase (pLDH) assay.
(§3) The reagent preparation and assay were done as described. The plates were subjected to 3 freeze-thaw cycles to haemolyze the red blood cells. One hundred microlitre (100 μL) of Malstat reagent was added to each required well of a fresh microtitre plate followed by 20 μL of culture. Then 25 μL of nitroblue tetrazolium/phenazine ethosulfate (NBT/PES) solution was added initiating the reaction. The plates were then incubated for an hour in the dark and optical density (OD) measured at 650 nm (Emax-Molecular Devices Corporation, California, USA).
(§4) For the parasite lactate dehydrogenase assay, the background OD of blank wells containing non parasitized red blood cells was subtracted from values of all test wells. OD values from control wells void of test compound represented the maximum pLDH activity. The OD values obtained were used to determine the IC50, and IC90 values using the software IC Method IC Estimator V1.2 [18], an online calculator of IC values. Each assay was done twice in duplicates and the 4 IC50 or CC50 values obtained were pooled together and expressed as mean IC ± S.D.

The subject of data set [2] is P. falciparum Dd2. Nature of the data set: Secondary screen: parasite growth inhibition by parasite lactate dehydrogenase (pLDH) assay, Dd2. It counts as cell-based, Plasmodium falciparum. More on the design: key to Antiplasmodial activity class on Dd2: active, IC50 < 5 μg/mL; moderately active: 5 μg/mL ≤ IC50 ≤ 10 μg/mL; weakly active: IC50 ≥ 10 μg/mL. The note with it: for IC50 / IC90: Plasmodium falciparum; for IC90: read-out: IC90.
Text: as §1, §2, §3, §4

Data set [3] has as its system LLC-MK2 monkey kidney epithelial cells. Nature of the data set: Cytotoxicity test, MTT/formazan assay. It is filed as cell-based. The note with it: for SI on 3D7: CC50 on LLC-MK2 cells/IC50 on P. falciparum 3D7; for SI on Dd2: CC50 on LLC-MK2 cells/IC50 on P. falciparum Dd2; for Mean SI: mean of the Selectivity Indices of the 3D7 and Dd2 parasite strains. The procedure:
(§5) This was done on monkey kidney epithelial cells, LLC-MK2, (ATCC, USA) as described except for use of same culture medium and conditions for P falciparum above. The cells, 10,000 in 100 μL medium per well, were cultured for 24 h to become confluent and attached to the bottom of the well and the medium replaced with 100 μL of fresh medium. […] A negative control without test substance was included. The plates were incubated for 72 h at 37 °C in 5% CO2 and cell viability were determined using microscopy to observe dead cells which appeared dark and deformed. This was followed by the MTT/formazan assay as described above with slight modification. The CC50 values (50% cytotoxic concentration) for each compound was obtained using Microsoft excel 2007. The selectivity index (SI) was calculated using the formula:3 SI=CC50onLLC‐MK2cells/IC50onP.falciparum
as §4

Data set [4] in a line: Cytotoxicity test, MTT/formazan assay. The note with it: monkey, LLC-MK2 monkey kidney epithelial cells; LLC-MK2 cells, 72 h, MTT/formazan. It counts as cell-based, monkey. The procedure:
as §5, §4

Data set [5] deals with P. falciparum Dd2. Nature of the data set: Primary screen: in vitro parasite growth inhibition at a single concentration, fluorescence microscopy with acridine orange. It is filed as cell-based, Plasmodium falciparum. The note with it: 40 μg/mL, 48 h, Dd2 chloroquine-resistant strain; for inhibition at 40 µg/mL: Plasmodium falciparum.
Text: as §1
A primary screen for antiplasmodial activity at a single concentration was performed against Dd2 as described with some modifications, to identify active compounds. Stock solutions of compound (1 mg/mL) was initially dissolved in dimethylsulfoxide (DMSO), then gentamycin-free incomplete medium (without Albumax II) added giving 2% final DMSO; the solutions were sterilized and stored. The positive control solutions (artemether and quinine at 5 μg/mL) were prepared similarly. The compounds were tested at a final concentration of 40 μg/mL in duplicate in a 96 well microtitre plate (100 μL per well), followed by 100 μL of 1% parasitized blood. Positive and negative controls (no drug) were included. The plate was incubated under the same culture conditions as above for 48 h and antiplasmodial activity determined by fluorescence microscopy (Leitz Wetzlar, Germany) with acridine orange stain at × 40 magnification under oil immersion. The number of infected erythrocytes (Ei) was counted in 20 monolayer fields (approximately 1500 cells per field) and the percentage parasitaemia was calculated using the formula:1 %parasitaemia=∑Ei/30,000×100
The percentage inhibition per concentration was then obtained using the formula below:2 percentage%inhibition=%parasitaemia of control well‐%parasitaemia of test well/%parasitaemia of control well×100

The mark [6] stands for this setting: 3D7 chloroquine-sensitive strain, pLDH assay, mean ± S.D., read-out: IC50.
The mark [7] stands for this setting: 3D7 chloroquine-sensitive strain, pLDH assay, mean ± S.D.
Where [8] appears, read: Dd2 chloroquine-resistant strain, pLDH assay, mean ± S.D., read-out: IC50.
Where [9] appears, read: Dd2 chloroquine-resistant strain, pLDH assay, mean ± S.D.
The mark [10] stands for this setting: 3D7 strain, class by IC50, read-out: Antiplasmodial activity class on 3D7.
[11] abbreviates: Dd2 strain, class by IC50, read-out: Antiplasmodial activity class on Dd2.

Take `OC(c1ccc(F)cc1)C1CCN(Cc2ccc(Cl)c(Cl)c2)CC1` (stereo not drawn) [Compound 8, [1-(3,4-dichlorobenzyl)piperidin-4-yl] [4-fluorophenyl] methanol]: the “Antiplasmodial activity class on 3D7” value in data set [1] (3D7 strain, class by IC50) is “active”. In data set [1] (setting [6]), the IC50 was 4.43 ± 0.32 µg/mL (≈ 12 µM). Moreover, in data set [1] (setting [7]), the IC90 was determined as 13.9 ± 1.25 µg/mL (≈ 37.7 µM). In data set [2] (Dd2 strain, class by IC50), the “Antiplasmodial activity class on Dd2” value was “active”. Besides, the IC50 in data set [2] (setting [8]) came out at 1.3 µg/mL (≈ 3.53 µM). In data set [2] (setting [9]), the 90% effect concentration (IC90) amounted to 17.3 ± 3.27 µg/mL (≈ 47.1 µM). For the same molecule, in data set [3], the “SI on 3D7” value is given as 21.14, the “SI on Dd2” value was 71.67 and the “Mean SI” value is listed as 46.41 ± 35.7. This molecule also yielded a CC50 at 72 h in data set [4] of 93.8 µg/mL (≈ 255 µM). Besides, in data set [5], the inhibition at 40 µg/mL is 81.7%.

On to `O=C(c1ccc(F)cc1)C1CCN(Cc2ccc(Cl)cc2)CC1` [Compound 3, [1-(4-chlorobenzyl)piperidin-4-yl] [4-fluorophenyl] methanone], for which the “Antiplasmodial activity class on 3D7” value in data set [1] (3D7 strain, class by IC50) is on record as “active”. The IC50 in data set [1] (setting [6]) amounted to 3.21 ± 0.21 µg/mL (≈ 9.67 µM); in data set [2] (setting [8]), 4.12 ± 1.28 µg/mL (≈ 12.4 µM). The results for the IC90 in data set [1] (setting [7]) and in data set [2] (setting [9]) were 17.9 ± 2.39 µg/mL (≈ 53.9 µM) and 32.4 ± 0.67 µg/mL (≈ 97.6 µM), respectively. Further, the “Antiplasmodial activity class on Dd2” value in data set [2] (Dd2 strain, class by IC50) is “active”. In data set [3], the “Mean SI” value is listed as 17.31 ± 3.0. The molecule also showed a CC50 at 72 h in data set [4] of 62.5 µg/mL (≈ 188 µM). Moreover, the inhibition at 40 µg/mL in data set [5] stood at 56.6%.

For `O=C(c1ccc(F)cc1)C1CCN(Cc2ccc(F)cc2)CC1` [Compound 1, [1-(4-fluorobenzyl)piperidin-4-yl] [4-fluorophenyl] methanone], the IC50 in data set [1] (setting [6]) is 8.45 ± 2.11 µg/mL (≈ 26.8 µM); in data set [1] (setting [10]) it was 5 to 10 µg/mL (≈ 15.9 to 31.7 µM); in data set [2] (setting [8]), 5.69 ± 2.38 µg/mL (≈ 18 µM); in data set [2] (setting [11]) it was 5 to 10 µg/mL (≈ 15.9 to 31.7 µM). The IC90 was determined as 17.9 ± 0.18 µg/mL (≈ 56.6 µM) in data set [1] (setting [7]) and 27.6 ± 0.78 µg/mL (≈ 87.5 µM) in data set [2] (setting [9]). Further, the “SI on 3D7” value in data set [3] is reported as 22.17. The “SI on Dd2” value in data set [3] is 32.91. Moreover, in data set [3], the “Mean SI” value is given as 27.54 ± 7.59. In data set [4], this molecule registered a CC50 at 72 h of 188 µg/mL (≈ 595 µM). Moreover, the inhibition at 40 µg/mL in data set [5] is 83.2%.

Regarding `O=C(c1ccc(F)cc1)C1CCN(Cc2ccccc2[N+](=O)[O-])CC1` [Compound 4, [1-(2-nitrobenzyl)piperidin-4-yl] [4-fluorophenyl] methanone], in data set [5], the “Inhibition (%) of P. falciparum Dd2 growth” value is “poor inhibition” and the inhibition at 40 µg/mL worked out at 27.7%.

In the case of `Cc1ccc(CN2CCC(C(=O)c3ccc(F)cc3)CC2)cc1` [Compound 6, [1-(4-methylbenzyl)piperidin-4-yl] [4-fluorophenyl] methanone], the IC50 in data set [1] (setting [6]) was 13.6 ± 0.31 µg/mL (≈ 43.8 µM); in data set [1] (setting [10]), not below 10 µg/mL; in data set [2] (setting [8]), 12.8 ± 3.21 µg/mL (≈ 40.9 µM); in data set [2] (setting [11]), not below 10 µg/mL. Besides, the IC90 in data set [1] (setting [7]) was 19.1 ± 2.46 µg/mL (≈ 61.3 µM); in data set [2] (setting [9]), 37.1 ± 0.53 µg/mL (≈ 119 µM). The same molecule had an inhibition at 40 µg/mL in data set [5] of 59.1%.

Consider `O=C(c1ccc(F)cc1)C1CCN(Cc2ccc(Cl)c(Cl)c2)CC1` [Compound 2, [1-(3,4-dichlorobenzyl)piperidin-4-yl] [4-fluorophenyl] methanone], for which the “Antiplasmodial activity class on 3D7” value in data set [1] (3D7 strain, class by IC50) is “active”. Further, the IC50 in data set [1] (setting [6]) was 4.3 ± 3.75 µg/mL (≈ 11.7 µM); in data set [2] (setting [8]) it was 5.97 ± 0.02 µg/mL (≈ 16.3 µM); in data set [2] (setting [11]), 5 to 10 µg/mL (≈ 13.7 to 27.3 µM). Also, the 90% effect concentration (IC90) in data set [1] (setting [7]) is 17.61 ± 0.06 µg/mL (≈ 48.1 µM); in data set [2] (setting [9]), 24.9 ± 4.14 µg/mL (≈ 67.9 µM). The “SI on 3D7” value in data set [3] is recorded as 43.51. The “SI on Dd2” value in data set [3] turned out to be 31.37. Also, the “Mean SI” value in data set [3] was found to be 37.44 ± 8.58. Further, the midpoint of cytotoxicity in data set [4], the CC50 at 72 h, lay at 188 µg/mL (≈ 512 µM). Also, testing at 40 µg/mL in data set [5] gave an inhibition of 82.7%.
